Data as given in US10172961B2 (priority 2014, dated 2019).
pIC50: −log10 of the molar value.

Assays:
[1] = molecular target: HPIV3 envelope glycoproteins (Human parainfluenza 3 virus, UniProt P06828); type: cell-based, Human parainfluenza virus type 3; settings: fusion assay with HPIV3 envelope glycoproteins; for IC50: read-out: IC50 nM, in vitro efficacy; for IC90: read-out: IC90 nM, in vitro efficacy
MV-IC323-EGFP = settings: for pIC50: 72 h
wild type MV G954 = settings: read-out: IC50, inhibition of MV entry (plaque reduction); wt MV G954, Vero-SLAM cells
Method: Vero-SLAM cell monolayers were infected with wild type MV G954 in the presence MV HRC peptides at the indicated peptide concentrations. Viral entry was assessed by plaque reduction assay. […] Each point represents the mean (±standard error) of four experiments. […] Vero-SLAM cell monolayers were infected with wild type MV-IC323-EGFP. After 90 minutes, medium with the indicated peptide concentrations was added. Viral spread was assessed by using a fluorescent readout of the EGFP after 72 hours. […] Each point represents the mean (±standard deviation) of a representative experiment.
Vero-SLAM monolayer cells were incubated with 40-50 PFU of wild type MV G954 in the presence of various concentrations of peptides. After 90 minutes, 2× minimal essential medium containing 10% FBS was mixed with 1% avicell and added to the dishes. The plates were then incubated at 37° C. for 72 h. After removing the medium overlay, the cells were immunostained for plaque detection. The number of plaques in the control (no peptide) and experimental wells were counted under a dissecting stereoscope.
The inhibitory activities of MV HRC 1, MV HRC 2, MV HRC 3 and MV HRC 4 (FIG. 1) against wt MV G954 were assessed in plaque reduction assays (FIG. 2A).

[2] = rat, in vivo
[3] = in vivo; cited from earlier work

Chain of HPIV3 envelope glycoproteins (P06828 110-539 limits assumed): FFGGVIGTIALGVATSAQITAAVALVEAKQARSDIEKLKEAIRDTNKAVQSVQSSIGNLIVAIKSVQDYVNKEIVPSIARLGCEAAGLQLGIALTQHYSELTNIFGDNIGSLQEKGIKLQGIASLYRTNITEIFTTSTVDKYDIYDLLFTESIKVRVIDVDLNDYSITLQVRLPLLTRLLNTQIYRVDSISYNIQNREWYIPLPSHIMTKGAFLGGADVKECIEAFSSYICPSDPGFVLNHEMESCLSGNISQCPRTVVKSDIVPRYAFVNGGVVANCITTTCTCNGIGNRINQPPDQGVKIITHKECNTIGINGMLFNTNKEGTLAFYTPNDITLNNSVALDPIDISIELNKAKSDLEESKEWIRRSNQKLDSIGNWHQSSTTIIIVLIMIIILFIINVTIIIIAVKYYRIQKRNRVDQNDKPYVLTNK
Chain of HPIV3 envelope glycoproteins (P06828 19-109 partner limits assumed): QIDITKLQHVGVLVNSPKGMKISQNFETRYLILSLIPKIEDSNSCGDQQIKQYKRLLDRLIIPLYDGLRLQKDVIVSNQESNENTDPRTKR

Row | Compound | IC50 [1] [nM] | IC90 [1] [nM] | also measured
1 | Ac-VALDPIDISIVLNKIKSDLEESKEWIRRSNKILDSI-GSGSG-C(PEG4-Betulinic)-NH2 (SEQ ID NO: 14) [VIKI-PEG4-Betulinic] | 550 | > 1000 | –
2 | Ac-VALDPIDISIVLNKIKSDLEESKEWIRRSNKILDSI-GSGSG-C(PEG4-Ursolic)-NH2 (SEQ ID NO: 15) [VIKI-PEG4-Ursolic] | 200 | > 1000 | –
3 | Ac-VALDPIDISIVLNKIKSDLEESKEWIRRSNKILDSI-GSGSG-C(PEG4-C30)-NH2 (SEQ ID NO: 13) [VIKI-PEG4-C30] | 40 | 800 | –
4 | CC[C@H](C)[C@H](NC(=O)[C@H](C)NC(=O)[C@H](CC(N)=O)NC(=O)CNC(=O)[C@H](CC(C)C)NC(=O)[C@H](CC(N)=O)NC(=O)[C@@H](NC(=O)CNC(=O)[C@@H](NC(=O)[C@H](CC(=O)O)NC(=O)[C@H](CC(C)C)NC(=O)[C@H](CCCNC(=N)N)NC(=O)[C@H](CCC(=O)O)NC(=O)[C@H](CC(C)C)NC(=O)[C@H](CO)NC(=O)[C@@H](NC(=O)[C@@H]1CCCN1C(=O)[C@@H]1CCCN1C(C)=O)[C@@H](C)CC)C(C)C)[C@@H](C)O)C(=O)N[C@@H](C)C(=O)N[C@@H](CCCCN)C(=O)N[C@@H](CC(C)C)C(=O)N[C@@H](CCC(=O)O)C(=O)N[C@@H](CC(=O)O)C(=O)N[C@@H](C)C(=O)N[C@@H](CCCCN)C(=O)N[C@@H](CCC(=O)O)C(=O)N[C@@H](CC(C)C)C(=O)N[C@@H](CC(C)C)C(=O)N[C@@H](CCC(=O)O)C(=O)N[C@@H](CO)C(=O)N[C@@H](CO)C(=O)N[C@@H](CC(=O)O)C(=O)N[C@@H](CCC(N)=O)C(=O)N[C@H](C(=O)N[C@@H](CC(C)C)C(=O)N[C@@H](CCCNC(=N)N)C(=O)NCC(=O)N[C@@H](CO)C(=O)NCC(=O)N[C@@H](CO)C(=O)NCC(=O)N[C@@H](CSCC(N)=O)C(N)=O)[C@@H](C)CC [MV HRC1] | – | – | reduction of viral infection (fluorescence level) (MV-IC323-EGFP): neither MV HRC 1 nor MV HRC 3 reduced viral infection; pIC50 (wild type MV G954): ~5.15
5 | CC[C@H](C)[C@H](NC(=O)[C@H](C)NC(=O)[C@H](CC(N)=O)NC(=O)CNC(=O)[C@H](CC(C)C)NC(=O)[C@H](CC(N)=O)NC(=O)[C@@H](NC(=O)CNC(=O)[C@@H](NC(=O)[C@H](CC(=O)O)NC(=O)[C@H](CC(C)C)NC(=O)[C@H](CCCNC(=N)N)NC(=O)[C@H](CCC(=O)O)NC(=O)[C@H](CC(C)C)NC(=O)[C@H](CO)NC(=O)[C@@H](NC(=O)[C@@H]1CCCN1C(=O)[C@@H]1CCCN1C(C)=O)[C@@H](C)CC)C(C)C)[C@@H](C)O)C(=O)N[C@@H](C)C(=O)N[C@@H](CCCCN)C(=O)N[C@@H](CC(C)C)C(=O)N[C@@H](CCC(=O)O)C(=O)N[C@@H](CC(=O)O)C(=O)N[C@@H](C)C(=O)N[C@@H](CCCCN)C(=O)N[C@@H](CCC(=O)O)C(=O)N[C@@H](CC(C)C)C(=O)N[C@@H](CC(C)C)C(=O)N[C@@H](CCC(=O)O)C(=O)N[C@@H](CO)C(=O)N[C@@H](CO)C(=O)N[C@@H](CC(=O)O)C(=O)N[C@@H](CCC(N)=O)C(=O)N[C@H](C(=O)N[C@@H](CC(C)C)C(=O)N[C@@H](CCCNC(=N)N)C(=O)NCC(=O)N[C@@H](CO)C(=O)NCC(=O)N[C@@H](CO)C(=O)NCC(=O)N[C@@H](CSC1=CC(=O)N(CCCC(=O)NCCOCCOCCOCCOCCC(=O)NCCN(CCNC(=O)CCOCCOCCOCCOCCNC(=O)CCCN2C(=O)C=C(SC[C@H](NC(=O)CNC(=O)[C@H](CO)NC(=O)CNC(=O)[C@H](CO)NC(=O)CNC(=O)[C@H](CCCNC(=N)N)NC(=O)[C@H](CC(C)C)NC(=O)[C@@H](NC(=O)[C@H](CCC(N)=O)NC(=O)[C@H](CC(=O)O)NC(=O)[C@H](CO)NC(=O)[C@H](CO)NC(=O)[C@H](CCC(=O)O)NC(=O)[C@H](CC(C)C)NC(=O)[C@H](CC(C)C)NC(=O)[C@H](CCC(=O)O)NC(=O)[C@H](CCCCN)NC(=O)[C@H](C)NC(=O)[C@H](CC(=O)O)NC(=O)[C@H](CCC(=O)O)NC(=O)[C@H](CC(C)C)NC(=O)[C@H](CCCCN)NC(=O)[C@H](C)NC(=O)[C@@H](NC(=O)[C@H](C)NC(=O)[C@H](CC(N)=O)NC(=O)CNC(=O)[C@H](CC(C)C)NC(=O)[C@H](CC(N)=O)NC(=O)[C@@H](NC(=O)CNC(=O)[C@@H](NC(=O)[C@H](CC(=O)O)NC(=O)[C@H](CC(C)C)NC(=O)[C@H](CCCNC(=N)N)NC(=O)[C@H](CCC(=O)O)NC(=O)[C@H](CC(C)C)NC(=O)[C@H](CO)NC(=O)[C@@H](NC(=O)[C@@H]3CCCN3C(=O)[C@@H]3CCCN3C(C)=O)[C@@H](C)CC)C(C)C)[C@@H](C)O)[C@@H](C)CC)[C@@H](C)CC)C(N)=O)C2=O)CCOC2CCC3(C)C(=CCC4C3CCC3(C)C(C(C)CCCC(C)C)CCC43)C2)C1=O)C(N)=O)[C@@H](C)CC (some centres unmarked) [MV HRC4] | – | – | pIC50 (MV-IC323-EGFP): ~7.26
6 | Ac-VALDPIDISIVLNKIKSDLEESKEWIRRSNKILDSI-GSGSG-C(PEG4-C20)-NH2 (SEQ ID NO: 12) [VIKI-PEG4-C20] | 75 | 900 | –
7 | CC[C@H](C)[C@H](NC(=O)[C@H](C)NC(=O)[C@H](CC(N)=O)NC(=O)CNC(=O)[C@H](CC(C)C)NC(=O)[C@H](CC(N)=O)NC(=O)[C@@H](NC(=O)CNC(=O)[C@@H](NC(=O)[C@H](CC(=O)O)NC(=O)[C@H](CC(C)C)NC(=O)[C@H](CCCNC(=N)N)NC(=O)[C@H](CCC(=O)O)NC(=O)[C@H](CC(C)C)NC(=O)[C@H](CO)NC(=O)[C@@H](NC(=O)[C@@H]1CCCN1C(=O)[C@@H]1CCCN1C(C)=O)[C@@H](C)CC)C(C)C)[C@@H](C)O)C(=O)N[C@@H](C)C(=O)N[C@@H](CCCCN)C(=O)N[C@@H](CC(C)C)C(=O)N[C@@H](CCC(=O)O)C(=O)N[C@@H](CC(=O)O)C(=O)N[C@@H](C)C(=O)N[C@@H](CCCCN)C(=O)N[C@@H](CCC(=O)O)C(=O)N[C@@H](CC(C)C)C(=O)N[C@@H](CC(C)C)C(=O)N[C@@H](CCC(=O)O)C(=O)N[C@@H](CO)C(=O)N[C@@H](CO)C(=O)N[C@@H](CC(=O)O)C(=O)N[C@@H](CCC(N)=O)C(=O)N[C@H](C(=O)N[C@@H](CC(C)C)C(=O)N[C@@H](CCCNC(=N)N)C(=O)NCC(=O)N[C@@H](CO)C(=O)NCC(=O)N[C@@H](CO)C(=O)NCC(=O)N[C@@H](CSC1=CC(=O)N(CCCC(=O)NCCOCCOCCOCCOCCC(=O)NCCNCCOC2CCC3(C)C(=CCC4C3CCC3(C)C(C(C)CCCC(C)C)CCC43)C2)C1=O)C(N)=O)[C@@H](C)CC (some centres unmarked) [MV HRC2] | – | – | presence in the brain / CNS localization [2]: a small fraction of the administered peptides was present; presence in the serum [2]: a small fraction of the administered peptides was present; pIC50 (MV-IC323-EGFP): ~7.27
8 | enfuvirtide | – | – | distribution in the CNS [3]: negligible distribution in the CNS
9 | Ac-VALDPIDISIVLNKIKSDLEESKEWIRRSNKILDSI-GSGSG-C(PEG4-palm)-NH2 (SEQ ID NO: 10) [VIKI-PEG4-palm] | 400 | > 1000 | –
